Assay results taken from PMC10384562, “Synthesis and Structure Determination of Substituted Thiazole Derivatives as EGFR/BRAF^V600E Dual Inhibitors Endowed with Antiproliferative Activity” (Pharmaceuticals, 2023).

Key:
[1] = test system: four human cancer cell lines (A-549, MCF-7, Panc-1, HT-29); assay: Antiproliferative assay, average over four cancer cell lines (GI50); type: cell-based; details: for IC50: Homo sapiens, average IC50 (GI50) over A-549, MCF-7, Panc-1, HT-29; for fold less potent than compound 3f (GI50): ratio of GI50 to that of 3f
Method: (§1) 4.2.1.2. Assay for antiproliferative effect
To explore the antiproliferative potential of compounds propidium iodide fluorescence assay was performed using different cell lines such as Panc-1 (pancreas cancer cell […]
(§2) (epithelial cancer cell line), respectively. To calculate the total nuclear DNA, a fluorescent dye (propidium iodide, PI) is used which can attach to the DNA, thus offering a quick and precise technique. PI cannot pass through the cell membrane and its signal intensity can be considered as directly proportional to quantity of cellular
DNA. Cells whose cell membranes are damaged or have changed permeability are counted as dead ones. The assay was performed by seeding the cells of different cell lines at a density of 3000-7500 cells/well (in200μl medium) in culture plates followed […]
(§3) The medium was removed; the compounds were added to the plates at 10 μM concentrations (in 0.1% DMSO) in triplicates, followed by incubation for 48h. DMSO (0.1%) was used as control. After incubation, medium was removed followed by the addition of PI (25 μl, 50μg/mL in water/medium) to each well of the plates. At -80 °C, the plates were allowed to freeze for 24 h, followed by thawing at 25 °C. A fluorometer (Polar-Star BMG Tech) was used to record the readings at excitation and emission wavelengths of 530 and 620 nm for each well. The percentage cytotoxicity of compounds was calculated using the following formula:
Where ATC= Absorbance of treated cells and AC= Absorbance of control. […]
was used as positive control in the assay.
(§4) (1 picture or pasted object on this page, not shown here)

[2] = test system: pancreatic cancer (Panc-1) cell line; assay: Antiproliferative assay, Panc-1; type: cell-based; details: Homo sapiens; Panc-1 pancreatic cancer cells; read-out: Antiproliferative Activity IC50 ± SEM, Panc-1
Method: as §1
as §2, with “To explore the antiproliferative potential of compounds propidium iodide fluorescence assay was performed using different cell lines such as Panc-1 (pancreas cancer cell line), MCF-7 (breast cancer cell line), HT-29 (colon cancer cell line) and A-549 (epithelial” for “(epithelial”
(§5) DNA. Cells whose cell membranes are damaged or have changed permeability are counted as dead ones. The assay was performed by seeding the cells of different cell lines at a density of 3000-7500 cells/well (in200μl medium) in culture plates followed by incubation for 24h at 37 °C in humidified 5%CO2/95% air atmospheric conditions.
as §3
(§6) Where ATC= Absorbance of treated cells and AC= Absorbance of control. Erlotinib was used as positive control in the assay.

[3] = test system: breast cancer (MCF-7) cell line; assay: Antiproliferative assay, MCF-7; type: cell-based; details: Homo sapiens, MCF7; MCF-7 breast cancer cells; read-out: Antiproliferative Activity IC50 ± SEM, MCF-7
Method: as §1
as §2, with “To explore the antiproliferative potential of compounds propidium iodide fluorescence assay was performed using different cell lines such as Panc-1 (pancreas cancer cell line), MCF-7 (breast cancer cell line), HT-29 (colon cancer cell line) and A-549 (epithelial” for “(epithelial”
as §5, §3, §6

[4] = Cell viability assay (MTT) on normal mammary epithelial cells; details: human, MCF-10A mammary gland epithelial cells
[5] = test system: colon cancer (HT-29) cell line; assay: Antiproliferative assay, HT-29; type: cell-based; details: Homo sapiens; HT-29 colon cancer cells; read-out: Antiproliferative Activity IC50 ± SEM, HT-29
Method: as §1
as §2, with “To explore the antiproliferative potential of compounds propidium iodide fluorescence assay was performed using different cell lines such as Panc-1 (pancreas cancer cell line), MCF-7 (breast cancer cell line), HT-29 (colon cancer cell line) and A-549 (epithelial” for “(epithelial”
as §5, §3, §6

[6] = test system: lung cancer (A-549) cell line; assay: Antiproliferative assay, A-549; type: cell-based; details: Homo sapiens, A549; A-549 lung cancer cells; read-out: Antiproliferative Activity IC50 ± SEM, A-549
Method: as §1
as §2, with “To explore the antiproliferative potential of compounds propidium iodide fluorescence assay was performed using different cell lines such as Panc-1 (pancreas cancer cell line), MCF-7 (breast cancer cell line), HT-29 (colon cancer cell line) and A-549 (epithelial” for “(epithelial”
as §5, §3, §6, §4

BRAF^V600E = biological target: T1, BRAF^V600E (Mus musculus, UniProt P28028, V585E); assay: BRAF^V600E inhibitory assay; type: biochemical; details: read-out: BRAF^V600E Inhibition IC50 ± SEM
T1 construct: Mouse full-length GST-tagged BRAFV600E (7.5 ng,; GST; purchased Invitrogen PV3849
T1 sequence (P28028 whole entry V585E): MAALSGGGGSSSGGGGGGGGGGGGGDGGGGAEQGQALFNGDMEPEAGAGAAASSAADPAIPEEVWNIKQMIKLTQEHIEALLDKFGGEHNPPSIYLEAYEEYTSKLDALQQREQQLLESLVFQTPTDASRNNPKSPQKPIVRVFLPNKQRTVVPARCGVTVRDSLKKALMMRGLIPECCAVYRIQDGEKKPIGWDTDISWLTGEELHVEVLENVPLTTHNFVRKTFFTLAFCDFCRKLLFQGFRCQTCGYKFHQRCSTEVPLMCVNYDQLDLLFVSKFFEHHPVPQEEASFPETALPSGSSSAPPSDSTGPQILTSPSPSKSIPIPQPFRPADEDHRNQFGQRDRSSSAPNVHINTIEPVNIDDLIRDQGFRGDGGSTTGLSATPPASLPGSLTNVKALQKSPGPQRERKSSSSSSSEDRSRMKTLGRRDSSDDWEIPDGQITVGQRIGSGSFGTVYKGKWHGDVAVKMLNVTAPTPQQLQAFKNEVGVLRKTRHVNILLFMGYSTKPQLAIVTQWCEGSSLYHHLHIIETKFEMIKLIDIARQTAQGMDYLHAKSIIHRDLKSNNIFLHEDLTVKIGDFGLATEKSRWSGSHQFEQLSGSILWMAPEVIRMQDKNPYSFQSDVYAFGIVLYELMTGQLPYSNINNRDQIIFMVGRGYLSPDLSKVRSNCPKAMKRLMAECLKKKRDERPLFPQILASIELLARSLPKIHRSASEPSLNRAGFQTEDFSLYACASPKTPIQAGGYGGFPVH
Method: See Supplementary Information. […]
4.2.3. BRAFV600E inhibitory assay
V600E mutant BRAF kinase assay was performed to investigate the activity of tested compounds against BRAF. Mouse full-length GST-tagged BRAFV600E (7.5 ng, Invitrogen, PV3849) was pre-incubated with drug (1 µL) and assay dilution buffer (4 µL) for 60 min at 25 °C. In assay dilution buffer, a solution (5 µL) containing MgCl2 (30 mM), ATP (200 µM), recombinant human full length (200 ng) […] N-terminal His-tagged MEK1 (Invitrogen) was added to start the assay, subsequent to incubation for 25 min at 25 °C. The assay was stopped using 5X protein denaturing buffer (LDS) solution (5 µL). To further denature the protein, heat (70° C) was applied for 5 min. 4- […]
200 V). 10 µL of each reaction was loaded into the precast plates and electrophoresis was allowed to proceed. After completion of electrophoresis, the front part of the precast gel plate (holding hot ATP) was cut and afterwards cast-off. The dried gel was developed using a phosphor screen. A reaction without active enzyme was used as negative control while that containing no inhibitor served as positive control. […]
4.3. Statistical analysis
Computerized Prism 5 program was used to statistically analyzed data using one-way ANOVA test followed by Tukey’s as post ANOVA for multiple comparison at P ≤.05.
Data were presented as mean ± SEM.

EGFR = biological target: T2, EGFR (Homo sapiens, UniProt P00533); assay: EGFR-TK inhibitory assay; type: biochemical
T2 construct: CD, amino acids 645–1186); His6 (N); made in house; host or cells: Sf-9 insect cells (baculovirus; pBlueBacHis2B / pFASTBacHTc
T2 sequence (P00533 669-1210): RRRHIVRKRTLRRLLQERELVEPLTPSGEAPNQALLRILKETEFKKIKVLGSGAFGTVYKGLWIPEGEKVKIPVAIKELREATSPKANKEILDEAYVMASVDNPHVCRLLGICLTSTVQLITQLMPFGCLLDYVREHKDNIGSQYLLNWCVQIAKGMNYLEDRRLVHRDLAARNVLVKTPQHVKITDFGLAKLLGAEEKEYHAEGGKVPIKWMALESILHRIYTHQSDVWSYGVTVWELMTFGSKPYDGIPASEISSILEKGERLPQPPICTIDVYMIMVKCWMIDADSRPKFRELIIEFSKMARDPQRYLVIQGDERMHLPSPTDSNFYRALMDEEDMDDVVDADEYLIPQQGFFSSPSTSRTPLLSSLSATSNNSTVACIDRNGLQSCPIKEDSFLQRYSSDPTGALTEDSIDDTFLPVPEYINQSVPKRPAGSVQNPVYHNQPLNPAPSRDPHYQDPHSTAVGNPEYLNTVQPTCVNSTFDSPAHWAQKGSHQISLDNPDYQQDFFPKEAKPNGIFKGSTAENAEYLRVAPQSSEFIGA
Method: 4.2.2. EGFR inhibitory assay
Baculoviral expression vectors including pBlueBacHis2B and pFASTBacHTc were […]
5ʹ upstream to the EGFR sequence comprised a sequence that encoded (His)6. Sf-9 cells were infected for 72h for protein expression. The pellets of Sf-9 cells were solubilized in a buffer containing sodium vanadate (100 μM), aprotinin (10 μg/mL), triton (1%), HEPES buffer(50mM), ammonium molybdate (10 μM), benzamidine HCl (16 μg/mL), NaCl (10 mM),leupeptin (10 μg/mL) and pepstatin (10 μg/mL) at 0°C for 20 min at pH 7.4, followed by centrifugation for 20 min. To eliminate the nonspecifically bound material, a Ni-NTA super flow packed column was used to pass through and wash the crude extract supernatant first with 10mM and then with 100 mM imidazole. Histidine-linked proteins were first eluted with 250 and then with 500 mM imidazole subsequent to dialysis against NaCl (50 mM), HEPES (20 mM), glycerol (10%) and 1 μg/mL each of aprotinin, leupeptin and pepstatin for 120 min. The purification was performed either at 4 °C or on ice. To record autophosphorylation level, EGFR kinase assay was carried out on the basis of DELFIA/Time-Resolved Fluorometry. The compounds were first dissolved in DMSO […]
pH 7.4. Each compound (10 μL) was incubated with recombinant enzyme (10 μL, 5 ng for EGFR, 1:80 dilution in 100 mM HEPES) for 10 min at 25 °C, subsequent to the addition of 5X buffer (10 μL, containing 2 mM MnCl2, 100 μM Na3VO4, 20 mM HEPES and 1 mM DTT) and ATP-MgCl2 (20 μL, containing 0.1 mM ATP and 50 mM MgCl2) and incubation for 1h. The negative and positive controls were included in each plate by the incubation of enzyme either with or without ATP-MgCl2. The liquid was removed after incubation and the plates were washed thrice using wash buffer.
Europium-tagged antiphosphotyrosine antibody (75 μL, 400 ng) was added to each well followed by incubation of 1h and then washing of the plates using buffer. The enhancement solution was added to each well and the signal was recorded at excitation […]
The autophosphorylation percentage inhibition by compounds was calculated using the following equation: […]

in vitro = details: human

SMILES	IC50 [1] [nM]	melting point [°C]	IC50 [2] [nM]	IC50 [3] [nM]	viability at 96 h, 50 µM [4] [%]	IC50 [5] [nM]	IC50 [6] [nM]	IC50 (BRAF^V600E) [nM]	fold less potent than erlotinib (EGFR IC50) (EGFR; ratio of EGFR IC50 to that of erlotinib) [fold]	IC50 (EGFR; read-out: EGFR Inhibition IC50 ± SEM) [nM]	viability at 96 h, 50 µM (in vitro) [%]	fold less potent than compound 3f (GI50) [1] [fold]
C=CCn1c(C)cs/c1=N\NS(=O)(=O)c1ccc(C)cc1 [Compound 3h, (Z)-N′-(3-Allyl-4-Methylthiazol-2(3H)-Ylidene)-4-Methyl Benzenesulfonohydrazide]	65	236 to 238	65 ± 6	68 ± 6	92	65 ± 6	63 ± 6					
Cc1cs/c(=N\Nc2ccc([N+](=O)[O-])cc2[N+](=O)[O-])n1Cc1ccccc1 [Compound 3a, (Z)-3-Benzyl-2-(2-(2,4-Dinitrophenyl)Hydrazineylidene)-4-Methyl-2,3-Dihydrothiazole]	48	215 to 217	48 ± 4	49 ± 4	89	48 ± 4	45 ± 4	117 ± 10	1.15	93 ± 8		
C#Cc1cccc(Nc2ncnc3cc(OCCOC)c(OCCOC)cc23)c1 [Erlotinib, reference compound]			30 ± 3	40 ± 3		30 ± 3	30 ± 3					
CCn1c(C)cs/c1=N\Nc1ccc([N+](=O)[O-])cc1[N+](=O)[O-] [Compound 3b, (Z)-2-(2-(2,4-Dinitrophenyl)Hydrazineylidene)-3-Ethyl-4-Methyl-2,3-Dihydrothiazole]	80		80 ± 8	82 ± 8		80 ± 8	78 ± 7				91	2.2
Cc1cs/c(=N\Nc2ccc([N+](=O)[O-])cc2[N+](=O)[O-])n1-c1ccccc1 [Compound 3e, (Z)-2-(2-(2,4-Dinitrophenyl)Hydrazineylidene)-4-Methyl-3-Phenyl-2,3-Dihydrothiazole]	72		72 ± 7	74 ± 7		72 ± 7	71 ± 7				87	2
